Consider three molecules from patent publication US20040096894A1, “Crystal structures of P- selectin, P- and E-selectin complexes, and uses thereof” (priority 2000, published 2004).

Numbered stars: 1 amine (or outer) side, 2 acyl side, 3 side chain; on linkers, the order of the positions; unused ones are H or OH. Square brackets hold non-standard residues; d marks the D form. Peptide text beside a SMILES is read from it. X1 = CC(=O)N[C@H]1[C@H](OC[C@H]2O[C@H](O[C@H](C)[C@H](N[*:1])C(=O)[*:2])[C@H](NC(C)=O)[C@@H](O[C@@H]3O[C@H](CO)[C@H](O)[C@H](O[C@]4(C(=O)O)C[C@H](O)[C@@H](NC(C)=O)[C@H]([C@H](O)[C@H](O)CO)O4)[C@H]3O)[C@H]2O)O[C@H](CO)[C@@H](O[C@@H]2O[C@H](CO)[C@H](O)[C@H](O[C@]3(C(=O)O)C[C@H](O)[C@@H](NC(C)=O)[C@H]([C@H](O)[C@H](O)CO)O3)[C@H]2O)[C@@H]1O[C@@H]1O[C@@H](C)[C@@H](O)[C@@H](O)[C@@H]1O; sY = N[C@@H](Cc1ccc(OS(=O)(=O)O)cc1)C(=O)O; pGlu = O=C1CC[C@@H](C(=O)O)N1

The target in assay [1] is T1, P-LE (lectin/EGF domains of P-selectin) (Homo sapiens, UniProt P16109).
T1 construct: The lectin-EGF (LE) domains (153 amino acids) of P-selectin (P-LE) and E-selectin (E-LE); IgG1 Fc (CH2-CH3 region) (C, cleaved yes); made in house; host or cells: CHO cells
T1 sequence (P16109 42-198): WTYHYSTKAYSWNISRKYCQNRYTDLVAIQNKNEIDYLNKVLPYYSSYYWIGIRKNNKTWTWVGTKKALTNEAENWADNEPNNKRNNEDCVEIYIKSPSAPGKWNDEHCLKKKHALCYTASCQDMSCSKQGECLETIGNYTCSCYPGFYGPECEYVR
The experiment in a line: BIAcore: inhibition of P-LE binding to immobilized sPSGL and SGP-3 by co-injected solution-phase peptide. Particulars: P-LE at 800 nM; solution-phase inhibitor at 20 μM. The protocol: FIGS. 1B-1 and 1B-2: Representative BIAcore sensorgrams of solution-phase P-LE binding to immobilized PSGL-1 constructs. P-LE (at 800 nM concentration) was injected over sPSGL (FIGS. 1B-1) and SGP-3 (FIGS. 1B-2). […] P-LE binding to sPSGL and SGP-3 was inhibited by co-injection with solution-phase SGP-3 (dotted line) but not by a synthetic peptide containing no tyrosine sulfation or glycosylation (dashed line), both at 20 μM concentration. All curves reflect specific binding produced by subtracting non-specific binding from total binding.
P-LE/19ek Peptide Binding Studies. Surface plasmon resonance was performed on BIAcore 2000 and 3000 instruments at 25° C. using streptavidin-coated sensor chips (BIAcore) and HBS-P buffer (BIAcore; 10 mM HEPES (pH 7.4), 150 mM NaCl, and 0.005% polysorbate 20 (v/v)) adjusted to 1 mM each CaCl2 and MgCl2. The 19ek peptides and sPSGL, a fucosyltransferase-VII modified version of the entire dimeric extracellular domain of PSGL-1 (Croce et al., 1998), were biotinylated at Lys residues with Sulfo-NHS-LC-Biotin (Pierce). Following biotinylation, sPSGL was reacted with immobilized P-selectin in order to isolate functional material (Sako et al., 1995). […] Glycosylated P-LE and E-LE, quantitated by experimentally determined extinction coefficients (280 nm), were injected over the19ek peptide, sPSGL and control surfaces at 40 μL/min. […]

The target of assay [2] is T1, P-LE (lectin/EGF domains of P-selectin). The experiment in a line: BIAcore surface plasmon resonance: solution-phase P-LE binding to immobilized sPSGL and PSGL-1 19ek peptides. Particulars: immobilized ligand. The source says:
FIGS. 1C-1-1C-6: Binding affinity determinations of solution-phase P-LE reacted with immobilized sPSGL and purified 19ek peptides by BIAcore analysis. First row, left-to-right: sPSGL (FIGS. 1C-1), SGP-3 (FIGS. 1C-2) and SGP-2 (FIGS. 1C-3). Second row, left-to-right: SGP-1 (FIGS. 1C-4), GP-1 (FIGS. 1C-5) and SP-1 (FIGS. 1C-6). P-LE at the indicated concentrations was reacted with immobilized ligands (to determine the total binding signal) and against control […] containing no ligand (to determine non-specific binding). The equilibrium responses (Req) at each concentration of P-LE are shown. At each P-LE concentration tested, specific binding signals (squares) were determined by subtracting non-specific responses (triangles) from total binding signals (diamonds). KDs and standard deviations (shown) were determined by line-fitting of specific binding curves using BIAevaluation software (BIAcore) and are the products of three-to-ten separate experiments. KD determinations using line-fitting agreed well with values determined by linear regression analysis of Scatchard plots (not shown).
P-LE/19ek Peptide Binding Studies. […] Glycosylated P-LE and E-LE, quantitated by experimentally determined extinction coefficients (280 nm), were injected over the19ek peptide, sPSGL and control surfaces at 40 μL/min. […]

Assay [3] concerns E-selectin relative P-selectin. Particulars: Poppe et al., 1997; cited from earlier work.

Take `CSCC[C@H](NC(=O)[C@H](CCSC)NC(=O)[C@@H]1CCCN1C(=O)[C@H](CCCNC(=N)N)NC(=O)[C@@H]1CCCN1C(=O)[C@@H]1CCCN1C(=O)[C@H](CCC(=O)O)NC(=O)[C@@H](NC(=O)[C@H](CCC(=O)O)NC(=O)[C@@H]1CCCN1C(=O)[C@H](CC(C)C)NC(=O)[C@H](Cc1ccccc1)NC(=O)[C@H](CC(=O)O)NC(=O)[C@H](Cc1ccc(OS(=O)(=O)O)cc1)NC(=O)[C@H](CC(=O)O)NC(=O)[C@H](CC(C)C)NC(=O)[C@H](Cc1ccc(OS(=O)(=O)O)cc1)NC(=O)[C@H](CCC(=O)O)NC(=O)[C@H](Cc1ccc(OS(=O)(=O)O)cc1)NC(=O)[C@H](CCC(=O)O)NC(=O)[C@@H](NC(=O)[C@H](C)NC(=O)[C@@H]1CCC(=O)N1)[C@@H](C)O)[C@@H](C)O[C@H]1O[C@H](CO[C@@H]2O[C@H](CO)[C@@H](O[C@@H]3O[C@H](CO)[C@H](O)[C@H](O[C@]4(C(=O)O)C[C@H](O)[C@@H](NC(C)=O)[C@H]([C@H](O)[C@H](O)CO)O4)[C@H]3O)[C@H](O[C@@H]3O[C@@H](C)[C@@H](O)[C@@H](O)[C@@H]3O)[C@H]2NC(C)=O)[C@H](O)[C@H](O[C@@H]2O[C@H](CO)[C@H](O)[C@H](O[C@]3(C(=O)O)C[C@H](O)[C@@H](NC(C)=O)[C@H]([C@H](O)[C@H](O)CO)O3)[C@H]2O)[C@H]1NC(C)=O)C(=O)N[C@@H](CC(=O)O)C(=O)N[C@@H](CC(=O)O)C(=O)N[C@@H](CC(=O)O)C(=O)N[C@@H](CC(=O)O)C(=O)N[C@@H](CCCCN)C(=O)O` [SGP-3] ([pGlu]ATE[sY]E[sY]LD[sY]DFLPE[X1]EPPRPMMDDDDK-OH; C-terminus assumed): in assay [1], the “inhibition of P-LE binding to immobilized sPSGL and SGP-3 by co-injection” value is listed as “inhibited”.
Take “sPSGL: Fucosyltransferase-VII modified version of the entire dimeric extracellular domain of PSGL-1”: the “binding affinity of P-LE in words, compared with SGP-3 or the modified species” value in assay [2] is “essentially identical affinity”.
As for “sialyl Lewis^X (SLe^X, NeuNAc2,3Gal1,4[Fuc1,3] GlcNAc) tetrasaccharide”, in assay [3], the “higher SLe^X binding affinity for E-selectin relative P-selectin” value was “approximately 10 fold”.
